Measured values as given in patent US20190110476A1, “NOVEL ISOTHIAZOLAMIDES, PROCESSES FOR THEIR PREPARATION AND THEIR USE AS FUNGICIDES” (priority 2014, published 2019).
Marks after values point to notes of the source that are not given here.

Experiment: Measurement of LogP values by HPLC on reversed phase columns (EEC directive 79/831 Annex V.A8)
Assay type: physicochemical
Conditions: not given
Summary of the method: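 LogP measured by reversed-phase HPLC following EEC directive 79/831 Annex V.A8. Lambda-max taken from UV spectra at 200–400 nm at chromatographic peak maxima; diastereoisomer values listed separately.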

Row | Compound | LogP
1 | COc1ccc(CNc2nsc(C(=O)NCC3(C)CCCO3)c2Cl)cc1 (stereo not shown) [I-1236] | 3.06[a]
2 | COc1ccc(CNc2nsc(C(=O)NC3CC(C)CC(C)(C)C3)c2Cl)cc1 (stereo not shown) [I-1206] | 5.00[a]
3 | Nc1nsc(C(=O)NCc2ccc(Oc3ccc(F)cc3)cc2)c1Cl [I-238] | 3.00[a]
4 | CC(=O)N(C(C)=O)c1nsc(C(=O)NCc2ccc(C#N)cc2)c1Cl [I-846] | 2.12[a]

More lines, now with the values ahead:

Row | LogP | Compound
5 | 2.13[a] | Nc1nsc(C(=O)NCc2cc(F)c(F)c(F)c2)c1Cl [I-131]
6 | 4.17[a] | CCC(c1cc(Cl)cc(Cl)c1)N(C(=O)c1snc(N)c1Cl)C1CC1 (stereo not shown) [I-955]
7 | 1.98[a] | Nc1nsc(C(=O)NCCc2ccccc2)c1Cl [I-851]
8 | 2.15[a] | Nc1nsc(C(=O)NCC2CCCC2)c1Cl [I-073]

Same assay, conditions: HPLC LC-UV, acidic range, 0.1% formic acid in water and acetonitrile as eluent

Row | Compound | chromatographic logP
9 | Nc1nsc(C(=O)O)c1Br [E-VIII-015, 3-amino-4-bromo-1,2-thiazole-5-carboxylic acid] | -0.07

Experiment: not given
Conditions: not given

Row | Compound | melting point [°C]
10 | Nc1nsc(C(=O)O)c1Br [E-VIII-015, 3-amino-4-bromo-1,2-thiazole-5-carboxylic acid] | 164.5
